Results taken from EP0318767A2, “Esters of pharmacologically active carboxylic acids splittable under physiological conditions” (F. HOFFMANN-LA ROCHE AG, priority 1987, dated 1989).

Experiments:
Escherichia coli 25922 = experiment: Experimental septicaemia in mice, oral antimicrobial efficacy; type: in vivo; conditions: Albino mice 16-20 g infected i.p. with Escherichia coli 25922, ester given orally in Tween 80 (4%) 1 and 3 h after infection, dose protecting 50% of animals, survival 4 days after infection, probit method; for ED50: read-out: ED₅₀ in mg/kg p.o.
From the text: Die perorale antimikrobielle Wirksamkeit der erfindungsgemässen Ester von antibiotisch wirksamen Carbonsäuren kann beispielsweise im nachfolgend beschriebenen Tierversuch nachgewiesen werden:
(§1) Man verursacht eine experimentelle Septikämie in 16-20 g schweren Albinomäusen, indem man den Versuchstieren eine Probe einer verdünnten Kultur des Testorganismus, Escherichia coli 25922, welche über Nacht gewachsen ist. intraperitoneal injiziert. Die verabreichte Probe wird dabei so bemessen, dass die verabreichte Dosis etwa 10-20 mal grösser ist, als die Dosis, welche benötigt wird um 50% der unbehandelten Versuchstiere innerhalb von 48 Stunden zu töten. Die Bakterien wurden als Suspension in Kulturbrühe injiziert. Sowohl für die Kontrolle als auch für die Behandlung wurden für jede getestete Dosis Gruppen zu je 5 Versuchstieren verwendet. Die erfindungsgemässen Ester wurden oral verabreicht, und zwar als Lösung in Tween 80 (4%), wobei die Konzentrationen so gewählt wurden, dass jedes Versuchstier 500 µl erhielt. Die Behandlungen erfolgten 1 und 3 Stunden nach der Infektion. Die ED₅₀ ist diejenige Dosis, welche 50% der Versuchstiere schützt, und wurde ausgehend von der Ueberlebensrate nach 4 Tagen nach der Infektion mittels der Probitmethode berechnet. In der nachfolgenden Tabelle sind die ED₅₀-Werte in mg/kg p.o. für Vertreter der erfindungsgemassen Stoffklasse angegeben. Die Tabelle enthält ausserdem Angaben über die akute Toxizität der erfindungsgemässen Ester bei einmaliger oraler Verabreichung an Mäusen. Tabelle

Mäusen = experiment: Acute toxicity after a single oral administration to mice; type: in vivo
From the text: as §1

SMILES	ED50 (Escherichia coli 25922) [mg/kg]	DL₅₀ in mg/kg p.o. (Mäusen) [mg/kg]	ED₅₀ in mg/kg p.o. (Escherichia coli 25922)
CC/C=C(\COC(=O)C1=C(CN=[N+]=[N-])CS[C@@H]2[C@H](NC(=O)/C(=N\OC)c3csc(N)n3)C(=O)N12)C(=O)OCC(C)C [Verbindung A, (E)-2-(Isobutoxycarbonyl)-2-pentenyl (6R,7R)-7-[(Z)-2-(2-amino-4-thiazolyl)-2-(methoxyimino)acetamido]-3-(azidomethyl)-8-oxo-5-thia-1-azabicyclo[4.2.0]oct-2-en-2-carboxylat]	0.28	>5000	–
CC/C=C(\COC(=O)C1=C(C)CS[C@@H]2[C@H](NC(=O)/C(=N\OC)c3csc(N)n3)C(=O)N12)C(=O)OCC(C)C [Verbindung B, (E)-2-(Isobutoxycarbonyl)-2-pentenyl (6R,7R)-7-[(Z)-2-(2-amino-4-thiazolyl)-2-(methoxyimino)acetamido]-3-methyl-8-oxo-5-thia-1-azabicyclo[4.2.0]oct-2-en-2-carboxylat]	1.4	–	–
C/C=C(\COC(=O)C1=C(C)CS[C@@H]2[C@H](NC(=O)/C(=N\OC)c3csc(N)n3)C(=O)N12)C(=O)OCC [Verbindung C, (E)-2-(Aethoxycarbonyl)-2-butenyl (6R,7R)-7-[(Z)-2-(2-amino-4-thiazolyl)-2-(methoxyimino)acetamido]-3-methyl-8-oxo-5-thia-azabicyclo[4.2.0]oct-2-en-2-carboxylat]	–	>5000	0,89 mg/kg
